Data from the kinase profiling compilation of Christmann-Franck et al. (2016).

What was measured:
Experiment in all cases: KINOMEscan competition binding
Settings in all cases: compound 10.0 µM
RIOK1 (human) = RIOK1 (human) (UniProt Q9BRS2)
MAP3K9 (human) = MAP3K9 (human) (UniProt P80192)
[1] = tested on: KIT (human), P10721 [V559D]
PRPF4B (human) = PRPF4B (human) (UniProt Q13523)
MAPK7 (human) = MAPK7 (human) (UniProt Q13164)
STK32A (human) = STK32A (human) (UniProt Q8WU08)
CDK19 (human) = CDK19 (human) (UniProt Q9BWU1)
MYLK (human) = MYLK (human) (UniProt Q15746)
[2] = tested on: KIT (human), P10721 [V559D/T670I]
NTRK1 (human) = NTRK1 (human) (UniProt P04629)
CSNK1G3 (human) = CSNK1G3 (human) (UniProt Q9Y6M4)
[3] = tested on: PIK3CA (human), P42336 [Q546K]
STK38L (human) = STK38L (human) (UniProt Q9Y2H1)
CSNK1E (human) = CSNK1E (human) (UniProt P49674)
LIMK1 (human) = LIMK1 (human) (UniProt P53667)
SBK1 (human) = SBK1 (human) (UniProt Q52WX2)
[4] = tested on: PIK3CA (human), P42336 [I800L]
MARK2 (human) = MARK2 (human) (UniProt Q7KZI7)
RIOK2 (human) = RIOK2 (human) (UniProt Q9BVS4)
FLT4 (human) = FLT4 (human) (UniProt P35916)
MAPK12 (human) = MAPK12 (human) (UniProt P53778)
PKMYT1 (human) = PKMYT1 (human) (UniProt Q99640)
TNIK (human) = TNIK (human) (UniProt Q9UKE5)
NEK5 (human) = NEK5 (human) (UniProt Q6P3R8)
CSNK2A2 (human) = CSNK2A2 (human) (UniProt P19784)
MELK (human) = MELK (human) (UniProt Q14680)
EPHA5 (human) = EPHA5 (human) (UniProt P54756)
PDGFRB (human) = PDGFRB (human) (UniProt P09619)
FGFR4 (human) = FGFR4 (human) (UniProt P22455)
SNRK (human) = SNRK (human) (UniProt Q9NRH2)
MAPK8 (human) = MAPK8 (human) (UniProt P45983)
RPS6KA2 KD2 (human) = RPS6KA2 KD2 (human) (UniProt Q15349)
PRKCH (human) = PRKCH (human) (UniProt P24723)
ROS1 (human) = ROS1 (human) (UniProt P08922)
MAPKAPK2 (human) = MAPKAPK2 (human) (UniProt P49137)
MYLK2 (human) = MYLK2 (human) (UniProt Q9H1R3)
SRPK3 (human) = SRPK3 (human) (UniProt Q9UPE1)
CaMK1 (human) = CaMK1 (human) (UniProt Q14012)
PAK3 (human) = PAK3 (human) (UniProt O75914)
OXSR1 (human) = OXSR1 (human) (UniProt O95747)

FLT4 (human), sequence (P35916 whole entry, looked up): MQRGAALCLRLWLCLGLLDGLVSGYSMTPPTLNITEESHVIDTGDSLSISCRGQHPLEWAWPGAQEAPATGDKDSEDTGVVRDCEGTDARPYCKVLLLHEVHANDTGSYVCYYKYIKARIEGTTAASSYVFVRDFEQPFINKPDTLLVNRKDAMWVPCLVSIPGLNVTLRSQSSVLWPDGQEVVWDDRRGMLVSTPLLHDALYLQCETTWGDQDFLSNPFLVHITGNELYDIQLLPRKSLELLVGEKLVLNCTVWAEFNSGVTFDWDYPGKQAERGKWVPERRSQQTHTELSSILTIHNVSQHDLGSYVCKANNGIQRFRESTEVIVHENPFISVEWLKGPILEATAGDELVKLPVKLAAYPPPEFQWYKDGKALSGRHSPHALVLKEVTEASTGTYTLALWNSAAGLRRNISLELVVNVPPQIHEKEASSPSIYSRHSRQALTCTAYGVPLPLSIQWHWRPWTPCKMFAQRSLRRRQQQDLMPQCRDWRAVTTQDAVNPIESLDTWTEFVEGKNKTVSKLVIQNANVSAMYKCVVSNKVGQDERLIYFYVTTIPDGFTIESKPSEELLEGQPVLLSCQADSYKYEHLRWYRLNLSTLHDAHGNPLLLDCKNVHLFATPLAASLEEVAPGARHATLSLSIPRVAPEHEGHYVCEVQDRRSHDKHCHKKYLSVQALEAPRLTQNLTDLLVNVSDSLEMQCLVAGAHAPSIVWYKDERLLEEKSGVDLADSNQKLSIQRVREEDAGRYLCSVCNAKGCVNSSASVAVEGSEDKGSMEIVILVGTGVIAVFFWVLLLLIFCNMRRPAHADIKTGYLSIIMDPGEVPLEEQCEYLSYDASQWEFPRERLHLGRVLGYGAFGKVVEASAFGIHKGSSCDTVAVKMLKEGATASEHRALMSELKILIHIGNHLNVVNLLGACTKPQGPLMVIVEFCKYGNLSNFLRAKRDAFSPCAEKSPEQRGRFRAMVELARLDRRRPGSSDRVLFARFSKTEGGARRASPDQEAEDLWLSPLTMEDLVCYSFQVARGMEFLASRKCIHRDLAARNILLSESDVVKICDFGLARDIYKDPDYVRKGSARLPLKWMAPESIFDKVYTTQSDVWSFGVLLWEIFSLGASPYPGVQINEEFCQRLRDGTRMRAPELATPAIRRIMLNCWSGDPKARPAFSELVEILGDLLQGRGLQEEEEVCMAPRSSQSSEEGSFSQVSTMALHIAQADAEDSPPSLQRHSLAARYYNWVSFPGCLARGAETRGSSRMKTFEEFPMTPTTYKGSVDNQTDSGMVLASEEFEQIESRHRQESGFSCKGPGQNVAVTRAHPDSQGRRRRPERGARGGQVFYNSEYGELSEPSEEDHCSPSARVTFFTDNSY
SNRK (human), sequence (Q9NRH2 whole entry, looked up): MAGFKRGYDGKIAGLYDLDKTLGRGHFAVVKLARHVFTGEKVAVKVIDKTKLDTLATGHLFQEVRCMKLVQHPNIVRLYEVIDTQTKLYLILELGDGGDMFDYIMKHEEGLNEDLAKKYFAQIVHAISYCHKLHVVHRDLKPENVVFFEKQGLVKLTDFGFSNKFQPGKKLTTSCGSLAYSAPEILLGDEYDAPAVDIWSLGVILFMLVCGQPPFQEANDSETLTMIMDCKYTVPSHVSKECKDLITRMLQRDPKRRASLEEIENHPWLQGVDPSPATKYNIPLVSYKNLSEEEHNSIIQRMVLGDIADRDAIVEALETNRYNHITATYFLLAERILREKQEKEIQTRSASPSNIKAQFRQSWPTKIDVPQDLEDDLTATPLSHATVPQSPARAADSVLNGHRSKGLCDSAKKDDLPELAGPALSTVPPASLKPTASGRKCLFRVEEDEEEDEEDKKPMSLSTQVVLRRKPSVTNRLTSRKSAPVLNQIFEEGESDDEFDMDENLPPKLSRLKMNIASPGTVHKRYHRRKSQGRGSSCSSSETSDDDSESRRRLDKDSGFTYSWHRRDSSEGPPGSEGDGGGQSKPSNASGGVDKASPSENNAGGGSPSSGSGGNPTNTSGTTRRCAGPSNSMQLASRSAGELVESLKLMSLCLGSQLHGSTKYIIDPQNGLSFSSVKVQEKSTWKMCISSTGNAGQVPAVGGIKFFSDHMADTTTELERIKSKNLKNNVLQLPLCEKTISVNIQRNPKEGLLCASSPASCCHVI
MAPK7 (human), sequence (Q13164 whole entry, looked up): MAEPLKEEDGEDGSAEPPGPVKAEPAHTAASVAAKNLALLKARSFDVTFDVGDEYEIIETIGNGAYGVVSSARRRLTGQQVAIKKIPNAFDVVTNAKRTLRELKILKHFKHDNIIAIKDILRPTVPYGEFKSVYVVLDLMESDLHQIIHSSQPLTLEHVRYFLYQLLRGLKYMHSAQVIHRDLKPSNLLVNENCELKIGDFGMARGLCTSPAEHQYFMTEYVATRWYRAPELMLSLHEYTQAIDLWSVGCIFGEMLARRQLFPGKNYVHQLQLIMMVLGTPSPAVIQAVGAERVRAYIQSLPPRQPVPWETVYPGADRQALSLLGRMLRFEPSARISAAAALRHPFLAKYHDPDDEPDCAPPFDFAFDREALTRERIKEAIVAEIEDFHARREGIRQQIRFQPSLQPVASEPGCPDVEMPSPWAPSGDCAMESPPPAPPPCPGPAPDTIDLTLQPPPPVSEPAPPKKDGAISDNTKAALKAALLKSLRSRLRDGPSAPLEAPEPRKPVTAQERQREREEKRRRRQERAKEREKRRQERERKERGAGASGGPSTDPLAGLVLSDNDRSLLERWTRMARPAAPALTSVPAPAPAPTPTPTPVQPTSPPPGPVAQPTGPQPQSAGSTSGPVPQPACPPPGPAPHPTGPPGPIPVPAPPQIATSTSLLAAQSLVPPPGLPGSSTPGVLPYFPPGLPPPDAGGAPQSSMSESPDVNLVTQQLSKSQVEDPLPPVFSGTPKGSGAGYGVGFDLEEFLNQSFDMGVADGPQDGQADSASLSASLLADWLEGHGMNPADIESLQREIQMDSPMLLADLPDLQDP
STK38L (human), sequence (Q9Y2H1 whole entry, looked up): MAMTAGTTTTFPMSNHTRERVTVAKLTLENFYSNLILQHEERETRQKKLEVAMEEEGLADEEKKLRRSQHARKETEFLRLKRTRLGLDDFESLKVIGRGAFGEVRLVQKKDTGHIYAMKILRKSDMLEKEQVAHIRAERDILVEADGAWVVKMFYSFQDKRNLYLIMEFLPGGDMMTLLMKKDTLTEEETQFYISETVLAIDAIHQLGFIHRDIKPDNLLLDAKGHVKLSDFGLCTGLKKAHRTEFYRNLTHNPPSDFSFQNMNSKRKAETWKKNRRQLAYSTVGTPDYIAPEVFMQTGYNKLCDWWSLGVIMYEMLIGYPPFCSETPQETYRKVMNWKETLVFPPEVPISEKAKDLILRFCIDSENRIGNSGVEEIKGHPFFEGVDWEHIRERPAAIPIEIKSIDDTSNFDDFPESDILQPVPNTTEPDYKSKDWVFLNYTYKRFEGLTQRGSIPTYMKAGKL
NTRK1 (human), sequence (P04629 whole entry, looked up): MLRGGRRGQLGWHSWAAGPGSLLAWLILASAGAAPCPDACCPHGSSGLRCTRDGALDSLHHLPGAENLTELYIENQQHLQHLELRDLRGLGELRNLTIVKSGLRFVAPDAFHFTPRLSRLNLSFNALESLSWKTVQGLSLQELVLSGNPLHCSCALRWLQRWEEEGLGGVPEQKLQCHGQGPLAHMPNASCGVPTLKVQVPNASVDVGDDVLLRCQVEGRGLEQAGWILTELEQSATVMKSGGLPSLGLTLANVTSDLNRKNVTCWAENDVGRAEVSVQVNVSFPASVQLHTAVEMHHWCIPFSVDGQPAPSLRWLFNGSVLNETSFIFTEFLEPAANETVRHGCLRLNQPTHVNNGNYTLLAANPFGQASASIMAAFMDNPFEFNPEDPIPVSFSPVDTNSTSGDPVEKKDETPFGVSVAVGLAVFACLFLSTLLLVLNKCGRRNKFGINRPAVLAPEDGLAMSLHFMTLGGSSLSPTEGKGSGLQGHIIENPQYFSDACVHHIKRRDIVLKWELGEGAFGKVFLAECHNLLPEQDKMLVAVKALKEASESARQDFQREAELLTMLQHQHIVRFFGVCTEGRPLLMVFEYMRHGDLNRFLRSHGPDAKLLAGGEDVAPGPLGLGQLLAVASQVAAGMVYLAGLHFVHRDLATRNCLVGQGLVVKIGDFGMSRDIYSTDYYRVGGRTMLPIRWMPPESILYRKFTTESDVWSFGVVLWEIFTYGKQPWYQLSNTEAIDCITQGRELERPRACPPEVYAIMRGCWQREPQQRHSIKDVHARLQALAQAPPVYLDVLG
CSNK2A2 (human), sequence (P19784 whole entry, looked up): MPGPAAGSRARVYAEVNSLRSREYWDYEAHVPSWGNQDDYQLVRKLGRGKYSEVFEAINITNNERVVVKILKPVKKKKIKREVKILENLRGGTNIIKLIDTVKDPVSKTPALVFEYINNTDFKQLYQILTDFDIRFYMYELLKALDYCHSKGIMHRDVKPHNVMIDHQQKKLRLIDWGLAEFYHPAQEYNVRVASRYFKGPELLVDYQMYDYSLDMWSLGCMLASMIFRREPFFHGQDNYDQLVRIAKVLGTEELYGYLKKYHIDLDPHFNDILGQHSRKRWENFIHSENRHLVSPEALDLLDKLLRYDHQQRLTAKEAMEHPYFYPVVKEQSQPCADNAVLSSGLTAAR
CSNK1G3 (human), sequence (Q9Y6M4 whole entry, looked up): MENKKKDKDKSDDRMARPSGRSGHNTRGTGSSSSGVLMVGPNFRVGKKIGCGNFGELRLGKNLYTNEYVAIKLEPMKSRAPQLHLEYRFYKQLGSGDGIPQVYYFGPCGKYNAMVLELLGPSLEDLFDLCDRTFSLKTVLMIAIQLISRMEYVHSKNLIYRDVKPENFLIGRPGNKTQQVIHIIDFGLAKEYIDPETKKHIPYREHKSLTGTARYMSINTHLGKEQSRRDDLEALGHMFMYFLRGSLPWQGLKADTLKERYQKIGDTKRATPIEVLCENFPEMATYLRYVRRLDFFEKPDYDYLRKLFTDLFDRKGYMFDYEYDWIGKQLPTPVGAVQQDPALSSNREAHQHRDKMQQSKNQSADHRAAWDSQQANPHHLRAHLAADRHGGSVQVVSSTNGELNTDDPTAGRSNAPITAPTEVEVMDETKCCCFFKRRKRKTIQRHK

Row | SMILES | kinase still bound, per cent of control (RIOK1 (human)) [%] | kinase still bound, per cent of control (MAP3K9 (human)) [%] | kinase still bound, per cent of control [1] [%] | kinase still bound, per cent of control (PRPF4B (human)) [%] | kinase still bound, per cent of control (MAPK7 (human)) [%] | kinase still bound, per cent of control (STK32A (human)) [%] | kinase still bound, per cent of control (CDK19 (human)) [%] | kinase still bound, per cent of control (MYLK (human)) [%] | kinase still bound, per cent of control [2] [%] | kinase still bound, per cent of control (NTRK1 (human)) [%] | kinase still bound, per cent of control (CSNK1G3 (human)) [%] | kinase still bound, per cent of control [3] [%] | kinase still bound, per cent of control (STK38L (human)) [%] | kinase still bound, per cent of control (CSNK1E (human)) [%] | kinase still bound, per cent of control (LIMK1 (human)) [%] | kinase still bound, per cent of control (SBK1 (human)) [%] | kinase still bound, per cent of control [4] [%] | kinase still bound, per cent of control (MARK2 (human)) [%] | kinase still bound, per cent of control (RIOK2 (human)) [%] | kinase still bound, per cent of control (FLT4 (human)) [%] | also measured
1 | CN(C)C/C=C/C(=O)Nc1cccc(Nc2ncc3c(n2)N(C)c2ccccc2C(=O)N3C)c1 | 18 | 89 | 54 | 100 | 0.1 | 100 | 100 | 69 | 65 | 18 | 39 | 30 | 54 | 75 | 71 | 7.6 | 55 | 21 | 79 | 100 | kinase still bound, per cent of control (MAPK12 (human)): 83%; kinase still bound, per cent of control (PKMYT1 (human)): 100%; kinase still bound, per cent of control (TNIK (human)): 29%; kinase still bound, per cent of control (NEK5 (human)): 58%; kinase still bound, per cent of control (CSNK2A2 (human)): 87%; kinase still bound, per cent of control (MELK (human)): 43%; kinase still bound, per cent of control (EPHA5 (human)): 99%; kinase still bound, per cent of control (PDGFRB (human)): 38%; kinase still bound, per cent of control (FGFR4 (human)): 22%; kinase still bound, per cent of control (SNRK (human)): 58%; kinase still bound, per cent of control (MAPK8 (human)): 91%; kinase still bound, per cent of control (RPS6KA2 KD2 (human)): 21%; kinase still bound, per cent of control (PRKCH (human)): 100%; kinase still bound, per cent of control (ROS1 (human)): 27%; kinase still bound, per cent of control (MAPKAPK2 (human)): 100%; kinase still bound, per cent of control (MYLK2 (human)): 46%; kinase still bound, per cent of control (SRPK3 (human)): 63%; kinase still bound, per cent of control (CaMK1 (human)): 49%; kinase still bound, per cent of control (PAK3 (human)): 14%; kinase still bound, per cent of control (OXSR1 (human)): 25%
2 | Cc1ccc2nc(NCCN)c3ncc(C)n3c2c1 | 100 | 100 | 23 | 66 | 0.7 | 100 | 100 | 79 | 39 | 100 | 100 | 38 | 100 | 58 | 100 | 100 | 100 | 100 | 79 | 100 | kinase still bound, per cent of control (MAPK12 (human)): 100%; kinase still bound, per cent of control (PKMYT1 (human)): 84%; kinase still bound, per cent of control (TNIK (human)): 100%; kinase still bound, per cent of control (NEK5 (human)): 100%; kinase still bound, per cent of control (CSNK2A2 (human)): 86%; kinase still bound, per cent of control (MELK (human)): 96%; kinase still bound, per cent of control (EPHA5 (human)): 100%; kinase still bound, per cent of control (PDGFRB (human)): 57%; kinase still bound, per cent of control (FGFR4 (human)): 100%; kinase still bound, per cent of control (SNRK (human)): 100%; kinase still bound, per cent of control (MAPK8 (human)): 66%; kinase still bound, per cent of control (RPS6KA2 KD2 (human)): 97%; kinase still bound, per cent of control (PRKCH (human)): 94%; kinase still bound, per cent of control (ROS1 (human)): 77%; kinase still bound, per cent of control (MAPKAPK2 (human)): 100%; kinase still bound, per cent of control (MYLK2 (human)): 71%; kinase still bound, per cent of control (SRPK3 (human)): 100%; kinase still bound, per cent of control (CaMK1 (human)): 98%; kinase still bound, per cent of control (PAK3 (human)): 62%; kinase still bound, per cent of control (OXSR1 (human)): 100%
3 | CCN1CCN(Cc2ccc(Nc3ncc4c(n3)N(C)c3ccccc3C(=O)N4C)cc2C(F)(F)F)CC1 | 33 | 58 | 56 | 76 | 0.1 | 81 | 95 | 64 | 74 | 34 | 5.4 | 3.2 | 90 | 45 | 52 | 6.9 | 12 | 40 | 100 | 100 | kinase still bound, per cent of control (MAPK12 (human)): 97%; kinase still bound, per cent of control (PKMYT1 (human)): 100%; kinase still bound, per cent of control (TNIK (human)): 100%; kinase still bound, per cent of control (NEK5 (human)): 77%; kinase still bound, per cent of control (CSNK2A2 (human)): 100%; kinase still bound, per cent of control (MELK (human)): 75%; kinase still bound, per cent of control (EPHA5 (human)): 100%; kinase still bound, per cent of control (PDGFRB (human)): 56%; kinase still bound, per cent of control (FGFR4 (human)): 36%; kinase still bound, per cent of control (SNRK (human)): 88%; kinase still bound, per cent of control (MAPK8 (human)): 100%; kinase still bound, per cent of control (RPS6KA2 KD2 (human)): 32%; kinase still bound, per cent of control (PRKCH (human)): 100%; kinase still bound, per cent of control (ROS1 (human)): 11%; kinase still bound, per cent of control (MAPKAPK2 (human)): 100%; kinase still bound, per cent of control (MYLK2 (human)): 88%; kinase still bound, per cent of control (SRPK3 (human)): 57%; kinase still bound, per cent of control (CaMK1 (human)): 78%; kinase still bound, per cent of control (PAK3 (human)): 9.4%; kinase still bound, per cent of control (OXSR1 (human)): 59%
